Columns and labels:
Type in all cases: cell-based
ΔF508-CFTR [1] = molecular target: T1, ΔF508-CFTR (Homo sapiens, UniProt P13569, DEL508-508); experiment: Corrector assay, YFP fluorescence plate reader iodide influx in ΔF508-CFTR expressing FRT cells
T1 construct: expressed in transfected cells; host or cells: Fischer rat thyroid (FRT) epithelial cells, stably transfected
Procedure: Screening procedures. Screening of compounds for activity was carried out using a Beckman Coulter platform equipped with FLUOstar fluorescence plate readers (Optima; BMG Labtech) with dual syringe pumps and 500±10 nm excitation and 535±15 nm emission filters (Chroma Corp.). For the corrector assay, FRT cells were grown at 37° C./5% CO2 for 18-24 h and then incubated for 18-24 h with 100 μL of medium containing test compounds (25 μM final concentration). At the time of the assay, cells were washed with PBS and then incubated for 10 min with PBS containing forskolin (20 μM) and genistein (50 μM). For the potentiator assay, FRT cells were grown at 37° C./5% CO2 for 18-24 h and then for 18-24 h at 27° C. At the time of the assay, cells were washed with PBS and then incubated for 10 min with PBS (50 μL) containing forskolin (20 μM) and test compound (0-25 μM final concentration). For both the corrector and potentiator assays, each well was assayed individually for I^− influx by recording fluorescence continuously (200 ms per point) for 2 s (baseline) and then for 12 s after rapid addition of 165 μL PBS in which 137 mM Cl^− was replaced by I^−. Initial I^− influx rate was computed by fitting the final 11.5 seconds of the data to an exponential for extrapolation of initial slope, which was normalized for background-subtracted initial fluorescence. All compound plates contained negative controls and positive controls (10 μM Corr-4a for corrector assay; 50 μM genistein for potentiator assay).
Screening of about 110,000 small molecules was done to identify new ΔF508-CFTR corrector scaffolds having high correction efficiency and/or having independent potentiator activity. […] FRT cells co-expressing human ΔF508-CFTR and a halide-sensing YFP were incubated with test compounds at 37° C. (corrector assay) or 27° C. (potentiator assay). ΔF508-CFTR function was assayed in a plate reader from YFP fluorescence quenching in response to iodide addition in the presence of forskolin (20 μM) plus genistein (50 μM) for corrector assay, or forskolin (20 μM) alone for potentiator assay. As shown in FIG. 1A (left), primary screening for corrector activity was done using a cell-based fluorescence assay of iodide influx in which FRT cells expressing ΔF508-CFTR and an iodide-sensitive YFP were incubated with test compounds at 10 μM for 18-24 h prior to assay. Iodide influx was measured by addition of extracellular iodide in the presence of a potentiator (50 μM genistein) and cAMP agonist (20 μM forskolin). Compound efficacy and potency (from concentration-dependence studies) in the corrector assay were compared to reference bithiazole Corr-4a (10 μM) and to low-temperature rescued cells. Active compounds were counter-screened for potentiator activity (FIG. 1A, right) in which iodide influx was measured in the ΔF508-CFTR expressing FRT cells after low-temperature rescue and in the presence of 20 μM forskolin.
Screening procedures. Plate reader activity assay was carried out using a Beckman Coulter platform containing a robotic arm, CO2 incubator containing microplate carousel, plate-washer, liquid handling work station, bar code reader, de-lidding station, plate sealer, and FLUOstar fluorescence plate readers (Optima; BMG LABTECH Gmbh), equipped with dual syringe pumps and 500±10 nm excitation and 535±15 nm emission filters (Chroma Corp.). For the corrector assay, ΔF508-CFTR-expressing FRT cells were grown at 37° C. (90% humidity; 5% CO2) for 18-24 h and then incubated for 18-24 h with 100 μL of medium containing test compounds (0-25 μM final concentration). At the time of the assay, cells were washed with PBS and then incubated for 10 min with PBS containing forskolin (20 μM) and genistein (50 μM). For the potentiator assay, FRT cells were grown at 37° C. (90% humidity; 5% CO2) for 18-24 h and then for 18-24 h at 27° C. […]

ΔF508-CFTR [2] = molecular target: T1, ΔF508-CFTR; experiment: Short-circuit current (apical membrane chloride current) corrector assay in ΔF508-CFTR expressing FRT cells; settings: 10 μM, 18-24 h incubation
Procedure: Short-circuit current measurements. ΔF508-CFTR-expressing FRT cells were cultured on Snapwell inserts for 7-9 days. For corrector testing, test compounds were incubated with FRT cells for 18-24 h at 37° C. prior to measurements. For potentiator testing, the FRT cells were incubated for 18-24 h at 27° C. prior to measurements. The basolateral solution contained 130 mM NaCl, 2.7 mM KCl, 1.5 mM KH2PO4, 1 mM CaCl2, 0.5 mM MgCl2, 10 mM glucose, and 10 mM Na-HEPES (pH 7.3). In the apical bathing solution, 65 mM NaCl was replaced by Na gluconate, and CaCl2 was increased to 2 mM. Solutions were bubbled with air and maintained at 37° C. The basolateral membrane was permeabilized with 250 μg/ml amphotericin B. Hemichambers were connected to a DVC-1000 voltage clamp (World Precision Instruments Inc.) via Ag/AgCl electrodes and 1 M KCl agar bridges for recording of short-circuit current.
Short-circuit current was measured as a definitive electrophysiological assay to verify Compound 22 corrector action. Apical membrane chloride current was measured in ΔF508-CFTR expressing FRT cells after basolateral membrane permeabilization and in the presence of a transepithelial chloride gradient (apical, 65 mM; basolateral, 130 mM). In FIG. 3C, incubation with Corr-4a (5 μM) is shown as reference (right). Forskolin (20 μM), genistein (50 μM) and CFTRinh-172 (10 μM) were added where indicated. […] FIG. 3D summarizes Compound 22 concentration dependence data from short-circuit current studies. […]
Short-circuit current was measured in an electrophysiology assay to verify corrector activity. Apical membrane chloride current was measured in ΔF508-CFTR expressing FRT cells after basolateral membrane permeabilization and in the presence of a transepithelial chloride gradient. […] To assay potentiator activity apical membrane chloride current was measured after low-temperature rescue, in response to CP-3 addition. CP-3 concentration-dependent increases in apical membrane current were measured in the presence of 5 μM forskolin. […]

ΔF508-CFTR [3] = molecular target: T1, ΔF508-CFTR; experiment: CFTR immunoblot of ΔF508-CFTR expressing FRT cells; settings: 24 h at 37° C.
Procedure: CFTR Immunoblot. DF508-CFTR expressing FRT cells grown on 6-well plates were treated with Corr-4a ([…]), Compound 22 […] or negative control at 37° C. for 24 h. After treatment, cells were washed with PBS and lysed in 20 mM Hepes (pH 7), 150 mM NaCl, 1 mM EGTA and 1% Igepal containing Complete Protease Inhibitor Cocktail (Roche). After pre-clearing, lysates were subjected to SDS-PAGE and analyzed by immunoblot. Proteins were immunodetected using a mouse monoclonal anti-CFTR antibody (M3A7, Millipore) followed by HRP-conjugated anti-mouse IgG, and visualized by chemiluminescence (ECL Plus, Amersham).
The action of Compound 22 as corrector of defective ΔF508-CFTR cellular processing was verified by CFTR immunoblot analysis (FIG. 4C). Wildtype CFTR was detected as a strong band at 170 kDa (band C), corresponding to complex glycosylated CFTR. […] Band B, which corresponds to core-glycosylated ΔF508-CFTR, was also seen.

T1 sequence (P13569 with tags, fused parts or gaps DEL508-508): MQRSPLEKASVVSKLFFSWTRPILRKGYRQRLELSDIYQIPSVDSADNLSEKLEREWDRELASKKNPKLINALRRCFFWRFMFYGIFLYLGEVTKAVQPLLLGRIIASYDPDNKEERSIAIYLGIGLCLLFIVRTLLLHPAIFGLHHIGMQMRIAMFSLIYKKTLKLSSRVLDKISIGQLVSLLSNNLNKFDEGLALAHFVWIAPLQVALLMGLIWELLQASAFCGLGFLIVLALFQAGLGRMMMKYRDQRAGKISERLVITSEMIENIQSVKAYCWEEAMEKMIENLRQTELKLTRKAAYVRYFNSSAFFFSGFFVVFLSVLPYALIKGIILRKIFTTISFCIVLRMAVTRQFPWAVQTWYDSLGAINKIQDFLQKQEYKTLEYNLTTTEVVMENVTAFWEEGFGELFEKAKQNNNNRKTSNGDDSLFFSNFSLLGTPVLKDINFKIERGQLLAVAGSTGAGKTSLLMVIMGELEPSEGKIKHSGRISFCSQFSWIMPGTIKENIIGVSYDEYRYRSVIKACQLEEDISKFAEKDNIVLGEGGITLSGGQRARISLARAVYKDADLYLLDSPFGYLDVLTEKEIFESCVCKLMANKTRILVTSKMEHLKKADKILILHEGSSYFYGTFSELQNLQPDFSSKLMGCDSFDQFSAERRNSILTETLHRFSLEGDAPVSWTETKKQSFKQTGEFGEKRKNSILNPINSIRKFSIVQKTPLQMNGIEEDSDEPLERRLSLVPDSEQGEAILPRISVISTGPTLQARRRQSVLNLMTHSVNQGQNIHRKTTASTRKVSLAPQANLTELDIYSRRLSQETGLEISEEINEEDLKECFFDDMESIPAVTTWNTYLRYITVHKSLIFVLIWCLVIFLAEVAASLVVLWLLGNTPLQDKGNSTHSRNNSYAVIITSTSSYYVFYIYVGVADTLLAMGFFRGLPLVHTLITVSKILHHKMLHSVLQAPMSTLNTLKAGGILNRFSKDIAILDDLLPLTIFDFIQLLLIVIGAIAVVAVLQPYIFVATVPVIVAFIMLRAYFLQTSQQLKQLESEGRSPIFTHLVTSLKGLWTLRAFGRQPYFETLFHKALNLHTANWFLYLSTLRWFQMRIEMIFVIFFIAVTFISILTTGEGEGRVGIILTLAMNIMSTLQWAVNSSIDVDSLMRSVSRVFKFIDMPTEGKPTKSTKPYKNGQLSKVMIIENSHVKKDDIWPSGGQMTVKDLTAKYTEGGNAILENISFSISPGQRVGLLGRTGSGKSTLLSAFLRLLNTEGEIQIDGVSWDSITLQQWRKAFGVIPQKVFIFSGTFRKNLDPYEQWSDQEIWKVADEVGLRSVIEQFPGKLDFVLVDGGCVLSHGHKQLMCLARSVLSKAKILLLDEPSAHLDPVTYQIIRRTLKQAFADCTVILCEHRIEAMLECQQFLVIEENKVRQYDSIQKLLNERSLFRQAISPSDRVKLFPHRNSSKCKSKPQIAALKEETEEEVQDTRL

| SMILES | corrector and potentiator activities, in words (ΔF508-CFTR [1]; concentration-dependence in corrector and potentiator I− influx assays (FIG. 2, FIG. 7)) | apical membrane current (corrector) (ΔF508-CFTR [2]) | complex glycosylated CFTR (band C) in immunoblot (ΔF508-CFTR [3]) | iodide influx after incubation at 27° C. (ΔF508-CFTR [1]; Compound 22 (20 µM) or Corr-4a (10 µM), 24 h, 27° C., vs low-temperature rescue control) | iodide influx after incubation at 37° C. (ΔF508-CFTR [1]; Compound 22 (20 µM) or Corr-4a (10 µM), 24 h, 37° C., with genistein) |
| --- | --- | --- | --- | --- | --- |
| COc1ccc(C(=O)NCCNc2nc3cc(C)cc(C)c3cc2C#N)cc1 [Compound CP3] | both corrector and potentiator activities | increase in apical membrane current |  |  |  |
| COc1ccc(Cl)cc1Nc1nc(-c2sc(NC(=O)c3ccccc3)nc2C)cs1 [Corr-4a, reference compound] |  |  | band C was visualized | substantially increased iodide influx | increased iodide influx |
